Data set [1] deals with Human immunodeficiency virus 1. Description: Antiviral activity against HIV-1 infected in human NCK45 cells assessed as inhibition of infection after 48 hrs by dual-reporter gene assay. It counts as functional, organism-based. Particulars: Human immunodeficiency virus 1, NCK45, 48 h. For orientation: In a reporter assay the amount or activity of a reporter protein is the signal.

Data set [2] is described as follows: Cytotoxicity against human NCK45 cells at 1 uM. It counts as cell-based. Particulars: nck45, 1 µM.
The nature of data set [3]: Cytotoxicity against human NCK45 cells at 10 uM. In kind it is cell-based. Particulars: nck45, 10 µM.

Data on 48 compounds can be found in ChEMBL document CHEMBL2407031, “Structure-activity relationship study of phenylpyrazole derivatives as a novel class of anti-HIV agents” (Bioorg Med Chem Lett, 2013).

A value given as a limit tells only on which side of the number the result lay.

Usually EC50 stands for the concentration needed to bring the measured effect to its halfway point.

On to `CCC(=O)Nc1cc(CNc2c(C#N)c(C)nn2-c2ccc3ncccc3c2)cc(Cl)c1O`, for which the EC50 in data set [1] is more than 10000 nM. Take `CCC(=O)Nc1cc(CNc2c(C#N)c(C)nn2-c2cccc(-c3ccccc3OC)c2)cc(Cl)c1O`: the Activity entry in data set [2] was “Toxic”. The half-maximal effective concentration (EC50) in data set [1] was more than 100 nM.

With `CCC(=O)Nc1cc(CNc2c(C#N)c(C)nn2-c2cccc(-c3ccccc3C)c2)cc(Cl)c1O`, in data set [2], the Activity result is given as “Toxic”. In data set [1], the EC50 was more than 100 nM. As to `CCC(=O)Nc1cc(CNc2c(C#N)c(C)nn2-c2cccc(-c3ccccc3Cl)c2)cc(Cl)c1O`, in data set [3], the Activity result is given as “Toxic”. Further, in data set [1], the concentration giving a half-maximal response (EC50) was 250 nM. With `CCC(=O)Nc1cc(CNc2c(C#N)c(C)nn2-c2cccc(-c3cccc(OC)c3)c2)cc(Cl)c1O`, in data set [2], the Activity entry is reported as “Toxic”. Besides, the EC50 in data set [1] is more than 100 nM. Taken in the same sequence, the figures for `CCC(=O)Nc1cc(CNc2c(C#N)c(C)nn2-c2cccc(-c3cccc(C)c3)c2)cc(Cl)c1O` were “Toxic” and 58 nM. Taken in the same sequence, the figures for `CCC(=O)Nc1cc(CNc2c(C#N)c(C)nn2-c2cccc(-c3cccc(Cl)c3)c2)cc(Cl)c1O` were “Toxic” and more than 100 nM.

For the compound `CCC(=O)Nc1cc(CNc2c(C#N)c(C)nn2-c2cccc(-c3ccc(OC)cc3)c2)cc(Cl)c1O`, the Activity entry in data set [2] is “Toxic”. Moreover, the half-maximal effective concentration (EC50) in data set [1] was more than 100 nM.

For the compound `CCC(=O)Nc1cc(CNc2c(C#N)c(C)nn2-c2cccc(-c3ccc(C)cc3)c2)cc(Cl)c1O`, the Activity result in data set [2] was “Toxic”. Further, in data set [1], the EC50 came to 97 nM. The corresponding values for `CCC(=O)Nc1cc(CNc2c(C#N)c(C)nn2-c2cccc(-c3ccc(Cl)cc3)c2)cc(Cl)c1O` are “Toxic” and more than 100 nM. Take `CCC(=O)Nc1cc(CNc2c(C#N)c(C)nn2-c2cccc(-c3ccc(Cl)c(Cl)c3)c2)cc(Cl)c1O`: the Activity entry in data set [2] is recorded as “Toxic”. In addition, the EC50 in data set [1] was 47 nM. The corresponding values for `CCC(=O)Nc1cc(CNc2c(C#N)c(C)nn2-c2cccc(-c3ccc4ccccc4c3)c2)cc(Cl)c1O` are “Toxic” and more than 100 nM. Regarding `CCC(=O)Nc1cc(CNc2c(C#N)c(C)nn2-c2cccc(-c3ccncc3)c2)cc(Cl)c1O`, the Activity entry in data set [3] is “Toxic”. Also, the concentration giving a half-maximal response (EC50) in data set [1] was more than 1000 nM.

On to `CCC(=O)Nc1cc(CNc2c(C#N)c(C)nn2-c2cccc(-c3cnc4ccccc4c3)c2)cc(Cl)c1O`, for which the Activity result in data set [2] is on record as “Toxic”. In addition, the EC50 in data set [1] is more than 100 nM.

In the case of `CCC(=O)Nc1cc(CNc2c(C#N)c(C)nn2-c2cccc(C(F)(F)F)c2)cc(Cl)c1O`, the Activity entry in data set [2] was “Toxic”. The half-maximal effective concentration (EC50) in data set [1] is more than 100 nM. With `CCC(=O)Nc1cc(CNc2c(C#N)c(C)nn2-c2cccc([N+](=O)[O-])c2)cc(Cl)c1O`, the Activity result in data set [3] is “Toxic”. Moreover, the EC50 in data set [1] is more than 1000 nM.

Turning to `CCC(=O)Nc1cc(CNc2c(C#N)c(C)nn2-c2cccc(-c3ccccc3)c2)cc(Cl)c1O`, the Activity result in data set [2] is “Toxic”. Further, the EC50 in data set [1] was 130 nM. For `CCC(=O)Nc1cc(CNc2c(C#N)c(C)nn2-c2cccc(NC(C)=O)c2)cc(Cl)c1O`, the EC50 in data set [1] was more than 10000 nM. `CCC(=O)Nc1cc(CNc2c(C#N)c(C)nn2-c2ccc(C)cc2)cc(Cl)c1O`: the Activity entry in data set [3] is “Toxic”. For the same compound, in data set [1], the EC50 was more than 1000 nM.

Regarding `CCC(=O)Nc1cc(CNc2c(C#N)c(C)nn2-c2ccccc2C)cc(Cl)c1O`, in data set [3], the Activity result is “Toxic”. In addition, in data set [1], the EC50 is more than 1000 nM. Taken in the same sequence, the figures for `CCC(=O)Nc1cc(CNc2c(C#N)c(C)nn2-c2cc(Cl)cc(Cl)c2)cc(Cl)c1O` were “Toxic” and more than 1000 nM. As to `CCC(=O)Nc1cc(CNc2c(C#N)c(C)nn2-c2ccc3ccccc3c2)cc(Cl)c1O`, in data set [3], the Activity result is “Toxic”. Further, the half-maximal effective concentration (EC50) in data set [1] was more than 1000 nM.

Turning to `CCC(=O)Nc1cc(CNc2c(C#N)c(C)nn2-c2cccc3ccccc23)cc(Cl)c1O`, the Activity entry in data set [3] is listed as “Toxic”. The half-maximal effective concentration (EC50) in data set [1] was more than 1000 nM.

With `CCC(=O)Nc1cc(CNc2c(C#N)c(C)nn2-c2ccccn2)cc(Cl)c1O`, the Activity result in data set [2] is listed as “Toxic”. Further, in data set [1], the EC50 was more than 100 nM. As to `CCC(=O)Nc1cc(CNc2c(C#N)c(C)nn2-c2cccnc2)cc(Cl)c1O`, in data set [1], the EC50 is more than 10000 nM. For the compound `CCC(=O)Nc1cc(CNc2c(C#N)c(C)nn2-c2nccc3ccccc23)cc(Cl)c1O`, the Activity result in data set [3] is listed as “Toxic”. In data set [1], the concentration giving a half-maximal response (EC50) was more than 1000 nM. As to `CCC(=O)Nc1cc(CNc2c(C#N)c(C)nn2-c2ccccc2)cc(C)c1O`, in data set [1], the half-maximal effective concentration (EC50) was more than 10000 nM. Consider `CC(=O)Nc1cc(CNc2c(C#N)c(C)nn2-c2ccccc2)cc(Cl)c1O`, for which the Activity entry in data set [3] is listed as “Toxic”. In data set [1], the EC50 was more than 1000 nM. Take `CCCC(=O)Nc1cc(CNc2c(C#N)c(C)nn2-c2ccccc2)cc(Cl)c1O`: the EC50 in data set [1] came out at 3300 nM. For `CCCCCC(=O)Nc1cc(CNc2c(C#N)c(C)nn2-c2ccccc2)cc(Cl)c1O`, in data set [1], the EC50 was more than 10000 nM.

`CCNC(=O)c1cc(CNc2c(C#N)c(C)nn2-c2ccccc2)cc(Cl)c1O`: the Activity entry in data set [3] is listed as “Toxic”. For the same compound, in data set [1], the half-maximal effective concentration (EC50) is more than 1000 nM.

As for `CCC(=O)Nc1cc(CNc2c(C#N)cnn2-c2ccccc2)cc(Cl)c1O`, the Activity entry in data set [3] was “Toxic”. Moreover, the EC50 in data set [1] is more than 1000 nM. For `CCC(=O)Nc1cc(CNc2cc(C)nn2-c2ccccc2)cc(Cl)c1O`, the EC50 in data set [1] is more than 10000 nM. The same measure, in the same setting: the value for `CCC(=O)Nc1cc(CNc2c(C#N)c(C)nn2C)cc(Cl)c1O` was more than 10000 nM. In the case of `CCC(=O)Nc1cc(CNc2c(C#N)c(C)nn2C2CCCCC2)cc(Cl)c1O`, in data set [3], the Activity entry is on record as “Toxic”. For the same compound, the concentration giving a half-maximal response (EC50) in data set [1] was more than 1000 nM. Turning to `CCC(=O)Nc1cc(CNc2c(C#N)c(CC)nn2-c2ccccc2)cc(Cl)c1O`, the EC50 in data set [1] was more than 10000 nM.

With `CCC(=O)Nc1cc(CNc2c(C#N)c(-c3ccccc3)nn2-c2ccccc2)cc(Cl)c1O`, the EC50 in data set [1] was more than 10000 nM.

In the case of `CCC(=O)Nc1cc(CNc2c(C(=O)OC)c(C)nn2-c2ccccc2)cc(Cl)c1O`, in data set [3], the Activity entry is “Toxic”. The EC50 in data set [1] was more than 1000 nM. For the compound `CCC(=O)Nc1cc(CNc2c(C#N)c(C)nn2-c2cccc(OC)c2)cc(Cl)c1O`, the concentration for a half-maximal effect (EC50) in data set [1] is more than 10000 nM. For `CCC(=O)Nc1cc(CNc2c(C#N)c(C)nn2-c2cccc(C)c2)cc(Cl)c1O`, in data set [3], the Activity result is “Toxic”. Further, the concentration for a half-maximal effect (EC50) in data set [1] amounted to 370 nM.

Take `CCC(=O)Nc1cc(CNc2c(C#N)c(C)nn2-c2cccc(Br)c2)cc(Cl)c1O`: in data set [2], the Activity result is given as “Toxic”. The EC50 in data set [1] is more than 100 nM.

As to `CCC(=O)Nc1cc(CNc2c(C#N)c(C)nn2-c2cccc(F)c2)cc(Cl)c1O`, the Activity result in data set [3] is listed as “Toxic”. The EC50 in data set [1] is 330 nM. In the case of `CCC(=O)Nc1cc(/N=N/c2c(C#N)c(C)nn2-c2ccccc2)cc(Cl)c1O`, the concentration giving a half-maximal response (EC50) in data set [1] came out at 320 nM. Still for that read-out and setting: in the case of `CCC(=O)Nc1cc(/C=C/c2c(C#N)c(C)nn2-c2ccccc2)cc(Cl)c1O` it was 440 nM; in that of `CCC(=O)Nc1cc(CNc2c(C#N)c(C)nn2-c2ccccc2)cc(Cl)c1O`, 360 nM.

Take `CCC(=O)Nc1cc(Cl)cc(CNc2c(C#N)c(C)nn2-c2ccccc2)c1`: the EC50 in data set [1] was more than 10000 nM. For `CCC(=O)Nc1cc(CNc2c(C#N)c(C)nn2-c2ccccc2)cc(Cl)c1OC`, the concentration for a half-maximal effect (EC50) in data set [1] was more than 10000 nM. Take `CCC(=O)Nc1cc(CNc2c(C#N)c(C)nn2-c2ccccc2)ccc1O`: the EC50 in data set [1] is more than 10000 nM.
